These results are taken from patent publication US20230279025A1, “KRAS G12D INHIBITORS” (Mirati Therapeutics, Inc., priority 2020, published 2023).

The target in this assay is KRas G12D (Homo sapiens (Human), UniProt P01116, G12D). Kind of assay: KRas G12D Binding Assay (TR-FRET displacement of Cy5 labelled tracer). The conditions noted are these: GDP-loaded KRAS G12D (amino acids 1:169), 60 minute incubation at 22° C. The protocol:
After a 60 minute incubation at 22° C., the reaction was measured using a PerkinElmer EnVision multimode plate reader via TR-FRET dual wavelength detection, and the percent of control (POC) calculated using a ratiometric emission factor. […] The POC values were fit to a 4-parameter logistic curve and the IC50 value was determined as the concentration where the curve crosses 50 POC.
ND stands for “not determined.”

Sequence of KRas G12D (P01116 other isoform, or with tags, fused parts or gaps G12D): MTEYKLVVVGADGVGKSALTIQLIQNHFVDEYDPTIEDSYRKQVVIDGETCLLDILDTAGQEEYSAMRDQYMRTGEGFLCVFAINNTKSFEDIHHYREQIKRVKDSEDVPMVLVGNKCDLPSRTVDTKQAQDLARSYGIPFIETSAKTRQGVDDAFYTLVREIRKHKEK

`Fc1cccc(-c2ncc3c(N4C[C@H]5CC[C@@H](C4)N5)nc(OCC45CCCN4CCC5)nc3c2F)c1C(F)(F)F` [Example 292, 4-((1R,5S)-3,8-diazabicyclo[3.2.1]octan-3-yl)-8-fluoro-7-(3-fluoro-2-(trifluoromethyl)phenyl)-2-((tetrahydro-1H-pyrrolizin-7a(5H)-yl)methoxy)pyrido[4,3-d]pyrimidine]: the IC50 came out at 13.1 nM. To `O[C@H]1CN2CCC[C@@]2(COc2nc(N3CC4CCC(C3)N4)c3cnc(-c4cccc5cccc(Cl)c45)c(F)c3n2)C1` [Example 223, 7a-(((4-((1R,5S)-3,8-diazabicyclo[3.2.1]octan-3-yl)-7-(8-chloronaphthalen-1-yl)-8-fluoropyrido[4,3-d]pyrimidin-2-yl)oxy)methyl)hexahydro-1H-pyrrolizin-2-ol bis-2,2,2-trifluoroacetate] belongs 7.1 nM; to `CC(C)(N)COc1nc(N2CC3CCC(C2)N3)c2cnc(-c3cccc4cccc(Cl)c34)c(F)c2n1` [Example 387, bis(2,2,2-trifluoroacetate)], 533 nM; to `C#Cc1cccc2cc(O)cc(-c3ncc4c(N5C[C@H]6CC[C@@H](C5)N6)ncnc4c3F)c12` [Example 244, 4-(4-((1R,5S)-3,8-diazabicyclo[3.2.1]octan-3-yl)-8-fluoropyrido[4,3-d]pyrimidin-7-yl)-5-ethynylnaphthalen-2-ol], 4.2 nM. In the case of `Fc1c(-c2c(C(F)(F)F)ccc3[nH]ncc23)ncc2c(N3CC4CCC(C3)N4)nc(OCC34CCCN3C[C@H](F)C4)nc12` (mixture of isomers) [Example 343, 4-((1R,5S)-3,8-diazabicyclo[3.2.1]octan-3-yl)-8-fluoro-2-((2-fluorotetrahydro-1H-pyrrolizin-7a(5H)-yl)methoxy)-7-(5-(trifluoromethyl)-1H-indazol-4-yl)pyrido[4,3-d]pyrimidine (racemic, trans)], the IC50 came out at 10.4 nM. The molecule `NC1(COc2nc(N3C[C@H]4CC[C@@H](C3)N4)c3cnc(-c4cccc5cccc(Cl)c45)c(F)c3n2)CCCCC1` [Example 262, 1-(((4-((1R,5S)-3,8-diazabicyclo[3.2.1]octan-3-yl)-7-(8-chloronaphthalen-1-yl)-8-fluoropyrido[4,3-d]pyrimidin-2-yl)oxy)methyl)cyclohexanamine] registered a half-inhibitory concentration (IC50) of 2260 nM. On to `Nc1cccc(F)c1-c1ncc2c(N3C[C@H]4CC[C@@H](C3)N4)nc(OCC34CCCN3CCC4)nc2c1F` [Example 265, 2-(4-((1R,5S)-3,8-diazabicyclo[3.2.1]octan-3-yl)-8-fluoro-2-((hexahydro-1H-pyrrolizin-7a-yl)methoxy)pyrido[4,3-d]pyrimidin-7-yl)-3-fluoroaniline], for which the IC50 was found to be 794 nM. This IC50 lies about 2.8-fold lower than the previous one.

In turn, `Oc1cc(-c2ncc3c(N4C[C@H]5CC[C@@H](C4)N5)nc(OCC45CCCN4CCC5)nc3c2F)c2c(Cl)cccc2c1` [Example 36, 4-(4-((1R,5S)-3,8-diazabicyclo[3.2.1]octan-3-yl)-8-fluoro-2-((tetrahydro-1H-pyrrolizin-7a(5H)-yl)methoxy)pyrido[4,3-d]pyrimidin-7-yl)-5-chloronaphthalen-2-ol] displayed an IC50 of 0.4 nM. `Nc1ccc(CCOc2nc(N3C[C@H]4CC[C@@H](C3)N4)c3cnc(-c4cccc5cccc(Cl)c45)c(F)c3n2)cn1` [Example 141, 5-(2-((4-((1R,5S)-3,8-diazabicyclo[3.2.1]octan-3-yl)-7-(8-chloronaphthalen-1-yl)-8-fluoropyrido[4,3-d]pyrimidin-2-yl)oxy)ethyl)pyridin-2-amine] came in with an IC50 of 891 nM. In the case of `CCCc1cccc2cccc(-c3ncc4c(N5C[C@H]6CC[C@@H](C5)N6)nc(OCC56CCCN5CCC6)nc4c3F)c12` [Example 254, 4-((1R,5S)-3,8-diazabicyclo[3.2.1]octan-3-yl)-8-fluoro-2-((hexahydro-1H-pyrrolizin-7a-yl)methoxy)-7-(8-propylnaphthalen-1-yl)pyrido[4,3-d]pyrimidine], the IC50 turned out to be 6.1 nM. This IC50 lies about 150-fold lower than the previous one. The value for `CN1CCC(F)(COc2nc(N3C[C@H]4CC[C@@H](C3)N4)c3cnc(-c4cccc5cccc(Cl)c45)c(F)c3n2)CC1` [Example 398, 4-((1R,5S)-3,8-diazabicyclo[3.2.1]octan-3-yl)-7-(8-chloronaphthalen-1-yl)-8-fluoro-2-((4-fluoro-1-methylpiperidin-4-yl)methoxy)pyrido[4,3-d]pyrimidine] was 593 nM; that for `CN1C[C@H](NC(=O)c2cccc(C=O)c2)C[C@H]1COc1nc(N2C[C@H]3CC[C@@H](C2)N3)c2cnc(-c3cccc4cccc(Cl)c34)c(F)c2n1` [Example 354, N-((3R,5S)-5-(((4-((1R,5S)-3,8-diazabicyclo[3.2.1]octan-3-yl)-7-(8-chloronaphthalen-1-yl)-8-fluoropyrido[4,3-d]pyrimidin-2-yl)oxy)methyl)-1-methylpyrrolidin-3-yl)-3-formylbenzamide] was 368 nM; that for `CN1CC[C@H](COc2nc(N3C[C@H]4CC[C@@H](C3)N4)c3cnc(-c4cccc5cccc(Cl)c45)c(F)c3n2)C1` [Example 357, 4-((1R,5S)-3,8-diazabicyclo[3.2.1]octan-3-yl)-7-(8-chloronaphthalen-1-yl)-8-fluoro-2-(((S)-1-methylpyrrolidin-3-yl)methoxy)pyrido[4,3-d]pyrimidine] was 438 nM. To `CCc1cccc2cc(O)cc(-c3ncc4c(N5C[C@H]6CC[C@@H](C5)N6)nc(OC[C@]56CCCN5[C@@H](COC(=O)NC)CC6)nc4c3F)c12` [Example 433, ((3R,7aR)-7a-(((4-((1R,5S)-3,8-diazabicyclo[3.2.1]octan-3-yl)-7-(8-ethyl-3-hydroxynaphthalen-1-yl)-8-fluoropyrido[4,3-d]pyrimidin-2-yl)oxy)methyl)hexahydro-1H-pyrrolizin-3-yl)methyl methylcarbamate] belongs 0.9 nM. `CC(C)Oc1ccccc1-c1ncc2c(N3CC4CCC(C3)N4)nc(OC[C@@]34CCCN3C[C@H](F)C4)nc2c1F` (stereo in doubt) [Example 416, 4-((1R,5S)-3,8-diazabicyclo[3.2.1]octan-3-yl)-8-fluoro-2-((2-fluorotetrahydro-1H-pyrrolizin-7a(5H)-yl)methoxy)-7-(2-isopropoxyphenyl)pyrido[4,3-d]pyrimidine] showed an IC50 of 1950 nM. In the case of `Cn1cnc2ccc(Oc3nc(N4C[C@H]5CC[C@@H](C4)N5)c4cnc(-c5cccc6cccc(Cl)c56)c(F)c4n3)cc21` [Example 148, 4-((1R,5S)-3,8-diazabicyclo[3.2.1]octan-3-yl)-7-(8-chloronaphthalen-1-yl)-8-fluoro-2-((1-methyl-1H-benzo[d]imidazol-6-yl)oxy)pyrido[4,3-d]pyrimidine], the IC50 was determined as 5180 nM. This IC50 is about 2.7-fold higher than that of the molecule before.

In turn, `Cc1c(Cl)cc2[nH]ncc2c1-c1ncc2c(N3CC4CCC(C3)N4)nc(OC[C@@]34CCCN3C[C@H](F)C4)nc2c1F` (stereo in doubt) [Example 401, 4-((1R,5S)-3,8-diazabicyclo[3.2.1]octan-3-yl)-7-(6-chloro-5-methyl-1H-indazol-4-yl)-8-fluoro-2-((2-fluorotetrahydro-1H-pyrrolizin-7a(5H)-yl)methoxy)pyrido[4,3-d]pyrimidine] had an IC50 of 2.8 nM. Against the preceding molecule, the IC50 is about 1900-fold lower. To `Fc1c(-c2ccccc2C2CC2)ncc2c(N3C[C@H]4CC[C@@H](C3)N4)nc(OCC34CCCN3CCC4)nc12` [Example 297] belongs 88.9 nM.
